Test results taken from ChEMBL document CHEMBL1201862, “PubChem BioAssay data set” (2004).
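Values below derive from 48-hour exposures of cells grown in 96-well plates, with endpoints linearly interpolated between the two concentrations bracketing the appropriate inhibition level. The concentration for 50% growth inhibition is given as GI50.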 Active and inactive are the calls of the source. Cut-off read from the data, not from the text of the source: active = GI50 up to about 1.1 µM and inactive = higher.

Legend:
Assay in all cases: growth of human tumour cells (NCI), 48 h
[1] = test system: 786-0
[2] = test system: A498
[3] = test system: EKVX
[4] = test system: HCT-116
[5] = test system: HOP-62
[6] = test system: Hs-578T
[7] = test system: IGROV-1
[8] = test system: KM12
[9] = test system: MDA-MB-231
[10] = test system: MDA-MB-435
[11] = test system: MOLT-4
[12] = test system: NCI-H226
[13] = test system: NCI-H23
[14] = test system: NCI-H460
[15] = test system: OVCAR-3
[16] = test system: SF-295
[17] = test system: SK-MEL-28
[18] = test system: SK-MEL-5
[19] = test system: T47D
[20] = test system: UACC-257

| Structure (SMILES) | GI50 [1] | GI50 [2] | GI50 [3] | GI50 [4] | GI50 [5] | GI50 [6] | GI50 [7] | GI50 [8] | GI50 [9] | GI50 [10] | GI50 [11] | GI50 [12] | GI50 [13] | GI50 [14] | GI50 [15] | GI50 [16] | GI50 [17] | GI50 [18] | GI50 [19] | GI50 [20] |
| --- | --- | --- | --- | --- | --- | --- | --- | --- | --- | --- | --- | --- | --- | --- | --- | --- | --- | --- | --- | --- |
| Cc1ccccc1C(=O)NC(O)(C(F)(F)F)C(F)(F)F | > 100 µM (inactive) | > 100 µM (inactive) | > 100 µM (inactive) | > 100 µM (inactive) | > 100 µM (inactive) | 22.5 µM (inactive) | > 100 µM (inactive) | 42.5 µM (inactive) | > 100 µM (inactive) | > 100 µM (inactive) | 35.9 µM (inactive) | > 100 µM (inactive) | 78.2 µM (inactive) | 84.9 µM (inactive) | 35.1 µM (inactive) | > 100 µM (inactive) | > 100 µM (inactive) | 94 µM (inactive) | 65.2 µM (inactive) | 61.9 µM (inactive) |
| Cc1ccc2c(=O)c(-c3nnsn3)c[nH]c2n1 | > 100 µM (inactive) | > 100 µM (inactive) | > 100 µM (inactive) | > 100 µM (inactive) | > 100 µM (inactive) | > 100 µM (inactive) | > 100 µM (inactive) | > 100 µM (inactive) | > 100 µM (inactive) | > 100 µM (inactive) | > 100 µM (inactive) | > 100 µM (inactive) | > 100 µM (inactive) | > 100 µM (inactive) | > 100 µM (inactive) | > 100 µM (inactive) | > 100 µM (inactive) | > 100 µM (inactive) | > 100 µM (inactive) | > 100 µM (inactive) |
| CCSC1=N/C(=C\c2ccccc2O)C(Nc2ccc(C)cc2)=N1 | 91.6 µM (inactive) | > 100 µM (inactive) | > 100 µM (inactive) | 39.1 µM (inactive) | 78.2 µM (inactive) | 56.1 µM (inactive) | 32.8 µM (inactive) | 24.5 µM (inactive) | > 100 µM (inactive) | 34.4 µM (inactive) | 29.2 µM (inactive) | 50.5 µM (inactive) | 56 µM (inactive) | 38.5 µM (inactive) | 22.4 µM (inactive) | 34.4 µM (inactive) | 51.1 µM (inactive) | 30.2 µM (inactive) | 50 µM (inactive) | 99.1 µM (inactive) |
| CCCCCCCCC/C=C/C=C/C(=O)NCC(=O)NC1C(O)C(O)C(Nc2ncnc3[nH]cnc23)OC1C(O)CO (stereo not given) | 0.00217 µM (active) | 0.00468 µM (active) | 0.126 µM (active) | 0.00323 µM (active) | 0.00412 µM (active) | 0.00432 µM (active) | 4.88e-05 µM (active) | 0.00263 µM (active) | 0.0538 µM (active) | 0.0255 µM (active) | 0.158 µM (active) | 0.00133 µM (active) | 0.00869 µM (active) | 0.00189 µM (active) | 0.000601 µM (active) | 0.00796 µM (active) | 0.0695 µM (active) | 0.0137 µM (active) | 0.169 µM (active) | 0.00444 µM (active) |
| CCCC(=O)NC(Nc1ccc(S(=O)(=O)Nc2nc(C)cc(C)n2)cc1)(C(F)(F)F)C(F)(F)F | > 100 µM (inactive) | > 100 µM (inactive) | > 100 µM (inactive) | > 100 µM (inactive) | > 100 µM (inactive) | > 100 µM (inactive) | > 100 µM (inactive) | > 100 µM (inactive) | > 100 µM (inactive) | > 100 µM (inactive) | > 100 µM (inactive) | > 100 µM (inactive) | > 100 µM (inactive) | > 100 µM (inactive) | > 100 µM (inactive) | > 100 µM (inactive) | > 100 µM (inactive) | > 100 µM (inactive) | > 100 µM (inactive) | > 100 µM (inactive) |
